How the values were obtained:
Type in all cases: cell-based
Bacillus Cereus = assay: Agar plate disc-diffusion, antibacterial inhibition zone; conditions: DMSO control zone subtracted; for inhibition zone, Bacillus Cereus, A: A = concentration of comp. = 10,000 μL; for inhibition zone, Bacillus Cereus, B: B = concentration of comp. = 30.000 μL; for inhibition zone, Bacillus Cereus, C: C = concentration of comp. = 50,000 μL
Procedure: (§1) The agar plate disc-diffusion method was applied. Sterilized filter papers (6 mm in diameter) were wetted with 10 μL of a solution of 2-ethoxy[4,3:6,4-terpyridine]-3-carbonitrile (4) and 2-methoxy[4,3:6,4-terpyridine]-3-carbonitrile (5) to be tested, containing […], and the discs were allowed to air dry. The discs were then placed onto the surface of agar plates (nutrient agar for bacteria and Sabouraud's dextrose agar for fungi) seeded with the test organism. Each plate contained 15 mL of the agar medium, previously seeded with 0.2 mL of the broth culture of each organism pregrown for 18 hours. The plates were incubated at 37° C. for 48 h, and 72 h for fungi. The inhibition zones were measured in mm. Discs impregnated with DMSO were used as a control, and its inhibition zone was subtracted from the tested compound actual inhibition zone.

Escherichia coli = assay: as above; conditions: DMSO control zone subtracted; for inhibition zone, Escherichia coli, A: A = concentration of comp. = 10,000 μL; for inhibition zone, Escherichia coli, B: B = concentration of comp. = 30.000 μL; for inhibition zone, Escherichia coli, C: C = concentration of comp. = 50,000 μL
Procedure: as §1

Pseudomonas aeruginosa = assay: as above; conditions: DMSO control zone subtracted; for inhibition zone, Pseudomonas aeruginosa, A: A = concentration of comp. = 10,000 μL; for inhibition zone, Pseudomonas aeruginosa, B: B = concentration of comp. = 30.000 μL; for inhibition zone, Pseudomonas aeruginosa, C: C = concentration of comp. = 50,000 μL
Procedure: as §1

Staphylococcus aureus = assay: as above; conditions: DMSO control zone subtracted; for inhibition zone, Staphylococcus aureus, A: A = concentration of comp. = 10,000 μL; for inhibition zone, Staphylococcus aureus, B: B = concentration of comp. = 30.000 μL; for inhibition zone, Staphylococcus aureus, C: C = concentration of comp. = 50,000 μL
Procedure: as §1

Aspergillus flavus = assay: Agar plate disc-diffusion, antifungal inhibition zone; conditions: DMSO control zone subtracted; for inhibition zone, Aspergillus flavus, A: A = concentration of comp. = 10,000 μL; for inhibition zone, Aspergillus flavus, B: B = concentration of comp. = 30.000 μL; for inhibition zone, Aspergillus flavus, C: C = concentration of comp. = 50,000 μL
Procedure: as §1

[1] = tested on: Chrysosporium keratinophilum; assay: as above; conditions: DMSO control zone subtracted; for inhibition zone, Chrysosporium keratinophilum, A: A = concentration of comp. = 10,000 μL; for inhibition zone, Chrysosporium keratinophilum, B: B = concentration of comp. = 30.000 μL; for inhibition zone, Chrysosporium keratinophilum, C: C = concentration of comp. = 50,000 μL
Procedure: as §1

Compound | inhibition zone, Bacillus Cereus, A (Bacillus Cereus) | inhibition zone, Bacillus Cereus, B (Bacillus Cereus) | inhibition zone, Bacillus Cereus, C (Bacillus Cereus) | inhibition zone, Escherichia coli, A (Escherichia coli) | inhibition zone, Escherichia coli, B (Escherichia coli) | inhibition zone, Escherichia coli, C (Escherichia coli) | inhibition zone, Pseudomonas aeruginosa, A (Pseudomonas aeruginosa) | inhibition zone, Pseudomonas aeruginosa, B (Pseudomonas aeruginosa) | inhibition zone, Pseudomonas aeruginosa, C (Pseudomonas aeruginosa) | inhibition zone, Staphylococcus aureus, A (Staphylococcus aureus) | inhibition zone, Staphylococcus aureus, B (Staphylococcus aureus) | inhibition zone, Staphylococcus aureus, C (Staphylococcus aureus) | inhibition zone, Aspergillus flavus, A (Aspergillus flavus) | inhibition zone, Aspergillus flavus, B (Aspergillus flavus) | inhibition zone, Aspergillus flavus, C (Aspergillus flavus) | inhibition zone, Chrysosporium keratinophilum, A [1] | inhibition zone, Chrysosporium keratinophilum, B [1] | inhibition zone, Chrysosporium keratinophilum, C [1]
COc1nc(-c2ccncc2)cc(-c2cccnc2)c1C#N [Compound 5, 2-methoxy[4,3:6,4-terpyridine]-3-carbonitrile] | 32 mm | 36 mm | 41 mm | 32 mm | 39 mm | 42 mm | 26 mm | 32 mm | 40 mm | 23 mm | 28 mm | 37 mm | 19 mm | 24 mm | 30 mm | 27 mm | 30 mm | 46 mm
CCOc1nc(-c2ccncc2)cc(-c2cccnc2)c1C#N [Compound 4, 2-ethoxy[4,3:6,4-terpyridine]-3-carbonitrile] | 27 mm | 34 mm | 39 mm | 33 mm | 41 mm | 49 mm | 28 mm | 34 mm | 41 mm | 19 mm | 23 mm | 33 mm | 30 mm | 34 mm | 41 mm | 26 mm | 31 mm | 39 mm

From patent US11926615B1, “2-alkoxy[4,3:6,4-terpyridine]-3-carbonitriles as antimicrobial compounds” (KING FAISAL UNIVERSITY, priority 2023, dated 2024)
